Results on 65 molecules are retold here after US11702417B2, “Compounds for improving mRNA splicing” (The General Hospital Corporation, priority 2015, dated 2023).

Like-named read-outs stand apart in the source and are kept apart here.

The assay relates to FD (familial dysautomonia) IKBKAP minigene, exon 20 inclusion, in HEK293T cells. Nature of the assay: Primary splicing assay (FD IKBKAP minigene, Firefly/Renilla luciferase reporter in HEK293T). The format is cell-based, human. The settings on record: for EC (maximum kinetin efficacy) / Emax: Homo sapiens, HEK-293T; for EC (maximum kinetin efficacy): HEK293T, read-out: ECk (compound concentration at which the maximum kinetin efficacy (200 μM) is reached). How it is done: As used herein, the expression “ECk” refers to the compound concentration at which the maximum kinetin efficacy (200 μM) is reached.
Splicing analysis was made possible by using an FD (familial dysautomonia) IKBKAP minigene which contained exon 19 through exon 21, including intervening introns, and also the T→C Thymine to cytosine transition located 6 base-pairs from the end of IKBKAP exon 20; See SEQ ID NO:3 for the complete sequence of plasmid pcDNA3.1/V5HisTOPO with Renilla-Familial Dysautonomia minigene-Firefly. Firefly luciferase (SEQ ID NO:14) was utilized as a splicing reporter, located downstream of exon 21, and Renilla luciferase (SEQ ID NO:13) was used as a control, located upstream of exon 19. The sequence of exon 19 is presented as SEQ ID NO:7; the Intron between Exon 19 and Exon 20 is SEQ ID NO:8; exon 20 is SEQ ID NO:9; the intron between […]; exon 21 is SEQ ID NO: 11, and the spliced sequence of exons 19-20-21 is SEQ ID NO:12. HEK293T cells were plated in a 6-well plate 24 hours prior to transfection. Transfection was carried out using a mixture of Opti-MEM (GIBCO ref. 31985), IKBKAP minigene, and Fugene HID (PROMEGA ref. E2311), incubated in DMEM media containing HEK293T cells at 37° C. The ratio of Opti-MEM, minigene, and Fugene was kept at approximately 9:1.5:1, with a total volume of 150 μL of transfection mixture applied per well.
After 4 hours of transfection, the cells were then plated in a 96-well plate coated with poly-L-lysine (SIGMA cat.P4707) for treatment scheduled 24 hours later. […] After 24 hours of treatment, cells were washed in the poly-L-lysine coated 96-well plate using PBS and subsequently harvested using Passive Lysis Buffer (Promega cat.E196). Cell lysate was transferred to a black and white 96-well plate and analyzed for splicing correction using a Glomax luminometer (PROMEGA GloMax® 96 Microplate Luminometer w/Dual Injectors cat.E6521) and Promega Dual Glo Firefly and Stop and Glo Renilla reagents (Cat.E196). The compound's ability to correct splicing and promote exon 20 inclusion was marked by an increase in Firefly signal. Renilla signal, which is independent of exon 20 inclusion, was used to correct for cell number. Using the ratio of Firefly to Renilla signal, a dose response curve was produced, which referenced kinetin and DMSO Firefly/Renilla ratios as positive and negative controls, respectively.
(In general: A reporter such as luciferase makes a cellular process visible.)

Setting [1] is: Firefly/Renilla ratio, 24 hours of treatment.
Where [2] appears, read: max efficacy in Primary Assay, Firefly/Renilla ratio, kinetin and DMSO as positive and negative controls, 24 hours of treatment, read-out: Emax (%).

Turning to `Clc1nc(NCc2nccs2)c2nc(OC[C@@H]3CCOC3)[nH]c2n1` [(473)], under setting [1], the EC (maximum kinetin efficacy) came out at 2.1 µM. Also, the Emax (commonly the size of the effect at its maximum, as opposed to the concentration needed) under setting [2] stood at 130%.
On to `O=C1Cc2c(NCc3ccncc3)nc(Cl)nc2N1` [(257)], for which the Emax under setting [2] came to 62%.
For `c1nc(NCc2cnn[nH]2)c2nc[nH]c2n1` [(406)], under setting [2], the Emax worked out at 20%.
Turning to `Cn1cnc2c(NCc3ccco3)ncnc21` [(20)], under setting [2], the Emax was 22%.
`OCCn1ccc2c(NCc3ccncc3)nc(Cl)nc21` [(122)]: the EC (maximum kinetin efficacy) under setting [1] is 5.65 µM. The Emax under setting [2] was 256%.
Take `N#Cc1c[nH]c2nc(Cl)nc(NCc3ccco3)c12` [(145)]: the maximal effect (Emax) under setting [2] was found to be 59%.
With `Clc1nc(NCc2ccco2)c2nc(C3CCC3)[nH]c2n1` [(231)], the Emax under setting [2] stood at 77%.
For `FC1(F)CC(COc2nc3c(NCc4ccco4)nc(Cl)nc3[nH]2)C1` [(387)], the EC (maximum kinetin efficacy) under setting [1] was 0.33 µM. The Emax under setting [2] is 238%.
On to `Clc1cc(NCc2ccncn2)n2ncnc2n1` [(286)], for which the Emax under setting [2] amounted to 38%.
Consider `OCCCNc1nc2c(NCc3ccco3)nc(Cl)nc2[nH]1` [(225)], for which, under setting [1], the EC (maximum kinetin efficacy) is 21.1 µM. Moreover, under setting [2], the Emax was found to be 114%.
Regarding `Clc1nc(NCc2ccncn2)c2cc[nH]c2n1` [(110)], under “max efficacy, Firefly only, footnote c: Renilla interference/Firefly only, read-out: Emax (%) Firefly only”, the Emax turned out to be 193%. Also, the “ECk, Firefly only” value (Renilla interference/Firefly only (footnote c)) came to 4.92 µM⁻¹.
Take `c1coc(CNc2ncnc3[nH]c(C4CC4)nc23)c1` [(96)]: the Emax under setting [2] came to 65%.
Consider `CNc1nc2c(NCc3ccco3)nc(Cl)nc2n1CCO` [(202)], for which the EC (maximum kinetin efficacy) under setting [1] amounted to 9.35 µM. Besides, the Emax under setting [2] is 137%.
On to `OCCn1cnc2c(NCc3ccco3)nc(Cl)nc21` [(73)], for which the EC (maximum kinetin efficacy) under setting [1] is 17.1 µM. Also, the Emax under setting [2] was 133%.
`Fc1ccccc1Nc1ncnc2[nH]cnc12` [(15)]: the EC (maximum kinetin efficacy) under setting [1] was 158 µM.
As to `CNC(=O)c1nc2c(NCc3ccncn3)nc(Cl)nc2[nH]1` [(258)], under setting [1], the EC (maximum kinetin efficacy) stood at 15.8 µM. Besides, the Emax under setting [2] worked out at 165%.
For the molecule `O=C(O)COc1nc2c(NCc3nccs3)nc(Cl)nc2[nH]1` [(511)], the Emax under setting [2] was 35.1%.
Turning to `COCCCOc1nc2c(NCc3ccco3)nc(Cl)nc2[nH]1` [(296)], the EC (maximum kinetin efficacy) under setting [1] was determined as 1.81 µM. Also, under setting [2], the Emax came out at 178%.
Taken in the same sequence, the figures for `Cc1c[nH]c2nc(Cl)nc(NCc3ccncn3)c12` [(126)] were 4.73 µM and 155%.
`O=C(O)c1ccc(CNc2nc(Cl)nc3[nH]ccc23)cc1` [(106)]: under setting [2], the Emax is 14%.
For the molecule `Clc1cc(NCc2ccncc2)n2ncnc2n1` [(283)], under setting [2], the Emax was found to be 29%.
The same measure, in the same setting: as for `Cc1cc(CNc2nc(Cl)nc3[nH]ccc23)ccn1` [(189)], the figure is 33%.
In the case of `CCCOc1nc2c(NCc3ccncc3)nc(Cl)nc2n1CCO` [(339)], under setting [1], the EC (maximum kinetin efficacy) stood at 1.31 µM. Besides, the Emax under setting [2] worked out at 188%.
On to `OCCn1cc(F)c2c(NCc3ccncc3)nc(Cl)nc21` [(135)], for which the EC (maximum kinetin efficacy) under setting [1] was 9.06 µM. Under setting [2], the Emax worked out at 194%.
As for `Clc1cc(NCc2ccco2)c2nc[nH]c2n1` [(198)], the EC (maximum kinetin efficacy) under setting [1] was determined as 5.01 µM. Besides, under setting [2], the Emax worked out at 125%.
In the case of `Clc1nc(NCc2ccco2)c2nc(OC3CNC3)[nH]c2n1` [(333)], the Emax under setting [2] was 51%.
Regarding `Cc1c[nH]c2nc(Cl)nc(NCc3nccs3)c12` [(123)], under setting [1], the EC (maximum kinetin efficacy) came to 4.9 µM. For the same molecule, the Emax under setting [2] amounted to 92%.
For the molecule `CCCCOc1nc2c(NCc3ccco3)nc(Cl)nc2[nH]1` [(311)], the EC (maximum kinetin efficacy) under setting [1] was 0.56 µM. Besides, the Emax under setting [2] was found to be 221%.
`O=C(O)Cn1ccc2c(NCc3ccco3)nc(Cl)nc21` [(167)]: the Emax under setting [2] amounted to 37%.
`Clc1nc(NCc2ccco2)c2c(-c3ccncc3)c[nH]c2n1` [(89)]: the Emax under setting [2] was determined as 21%.
For the molecule `Cc1nc2c(NCc3ccco3)c(C(N)=O)cnc2[nH]1` [(171)], the Emax under setting [2] came out at 48%.
The same measure, in the same setting: as for `Clc1nc(NCc2ccco2)c2nc[nH]c2n1` [(323)], the figure is 26%.
In the case of `FC(F)(F)CN1CCC(n2ccc3c(NCc4ccco4)nc(Cl)nc32)CC1` [(200)], the Emax under setting [2] amounted to 11%.
Regarding `FC(F)(F)CCOc1nc2c(NCc3ccco3)nc(Cl)nc2[nH]1` [(398)], the EC (maximum kinetin efficacy) under setting [1] turned out to be 0.94 µM. Further, under setting [2], the Emax was determined as 176%.
On to `CC(=O)N1CC(Oc2nc3c(NCc4nccs4)nc(Cl)nc3[nH]2)C1` [(469)], for which the Emax under setting [2] was determined as 13.3%.
On to `Clc1nc2c(c(NCc3ccco3)n1)CCC2` [(466)], for which the EC (maximum kinetin efficacy) under setting [1] is 3.66 µM. For the same molecule, under setting [2], the Emax is 221%.
As for `OCCn1ccc2c(NCc3ccco3)nc(Cl)nc21` [(77)], the Emax (max efficacy, value marked (RT-PCR), footnote b: Renilla interference, read-out: Emax (%) (RT-PCR)) was 321%. Also, the “ECk (RT-PCR)” value (determined by RT-PCR, footnote a Firefly inhibitor, footnote b Renilla interference) was in the range of 1 to 10 µM.
Turning to `c1cncc(CNc2ncnc3[nH]cnc23)c1` [(7)], under setting [2], the Emax amounted to 39%.
For `Clc1nc(NCc2nccs2)c2c(Cl)c[nH]c2n1` [(208)], the EC (maximum kinetin efficacy) under setting [1] worked out at 107 µM. Further, under setting [2], the Emax was 83%.
Turning to `Clc1cc(NCc2ccncn2)n2nccc2n1` [(330)], the Emax under setting [2] was found to be 20%.
For the molecule `Fc1nc(NCc2ccco2)c2nc[nH]c2n1` [(58)], the EC (maximum kinetin efficacy) under setting [1] stood at 17.9 µM. Further, under setting [2], the Emax was 155%.
Take `CCCOc1nc2c(N(CCO)Cc3nccs3)nc(Cl)nc2[nH]1` [(393)]: the EC (maximum kinetin efficacy) under setting [1] was 7.4 µM. Moreover, the Emax under setting [2] is 85.2%.
Taken in the same sequence, the figures for `OCCn1ccc2c(NCc3nccs3)nc(Cl)nc21` [(137)] were 7.25 µM and 214%.
Take `Cc1cnccc1CNc1nc(Cl)nc2[nH]ccc12` [(263)]: under setting [1], the EC (maximum kinetin efficacy) came to 27.4 µM. In addition, under setting [2], the Emax was 105%.
For the molecule `COc1nc2c(NCc3ccco3)nc(Cl)nc2[nH]1` [(124)], the EC (maximum kinetin efficacy) under setting [1] was determined as 2.41 µM. The Emax under setting [2] worked out at 180%.
Regarding `Clc1cc(NCc2ccncn2)n2ccnc2n1` [(298)], the Emax under setting [2] was 21%.
On the same count and under the same terms, next, `CNCc1nc2c(NCc3ccco3)nc(Cl)nc2[nH]1` [(235)]: 80%; `O=C(O)c1ccc(CNc2nc(Cl)nc3[nH]cc(F)c23)cc1` [(117)]: 23%; `Nc1nc(NCc2ccco2)c2nn[nH]c2n1` [(279)]: 54%.
For the molecule `Clc1nc(NCc2ccncn2)c2nc[nH]c2n1` [(129)], the EC (maximum kinetin efficacy) under setting [1] came out at 5.6 µM. Under setting [2], the Emax is 169%.
`O=C1CCCN1CCOc1nc2c(NCc3nccs3)nc(Cl)nc2[nH]1` [(402)]: under setting [2], the Emax was 21%.
In the case of `CCCCOc1nc2c(NCc3ccncc3)nc(Cl)nc2[nH]1` [(305)], the EC (maximum kinetin efficacy) under setting [1] came out at 0.43 µM. Besides, the Emax under setting [2] amounted to 284%.
Turning to `Clc1nc(NCc2ccncc2)c2nc(C3CC3)[nH]c2n1` [(141)], the Emax under setting [2] came out at 103%.
The same measure, in the same setting: as for `Clc1nc(NCc2ccncc2Cl)c2nc[nH]c2n1` [(229)], the figure is 55%.
As for `FC(F)COc1nc2c(NCc3ccncc3)nc(Cl)nc2[nH]1` [(382)], the EC (maximum kinetin efficacy) under setting [1] was 1.31 µM. Further, under setting [2], the Emax stood at 193%.
With `CCCOc1nc2c(NCc3ccco3)nc(Cl)nc2n1CCO` [(306)], under setting [1], the EC (maximum kinetin efficacy) came out at 0.7 µM. The Emax under setting [2] was 247%.
The matching figures for `COc1nc2c(NCc3ccncn3)nc(Cl)nc2n1CCO` [(300)]: 10 µM and 84%.
As to `c1ccc(-c2c[nH]c3ncnc(NCc4ccco4)c23)cc1` [(83)], the Emax under setting [2] stood at 4%.
On the same count and under the same terms, as for `N#Cc1c[nH]c2nc(Cl)nc(NCc3ccncc3)c12` [(151)], the figure is 73%.
As to `Clc1nc(NCc2ccncc2Cl)c2cc[nH]c2n1` [(228)], the EC (maximum kinetin efficacy) under setting [1] was 15.7 µM. Besides, the Emax under setting [2] was 152%.
With `Fc1ccccc1CNc1nc(Cl)nc2[nH]cnc12` [(352)], under setting [2], the Emax was determined as 25%.
As to `CC(=O)N1CCC(n2ccc3c(NCc4ccco4)nc(Cl)nc32)CC1` [(197)], the Emax under setting [2] was determined as 14%.
For `Cc1[nH]c2nc(Cl)nc(NCc3ccncn3)c2c1F` [(204)], the Emax under setting [2] is 27%.
Still for that read-out and setting: as for `CC(=O)Oc1c[nH]c2nc(Cl)nc(NCc3ccco3)c12` [(252)], the figure is 43%.
As to `Clc1nc(NCc2ccco2)c2nc(N3CCOCC3)[nH]c2n1` [(102)], under setting [2], the Emax is 52%.
